Consider 32 molecules from ChEMBL document CHEMBL3739354, “Nitrofuranyl Methyl Piperazines as New Anti-TB Agents: Identification, Validation, Medicinal Chemistry, and PK Studies” (ACS Med Chem Lett, 2015).

Structures are written as SMILES. ≈ marks a conversion by molar mass, not a printed value.

Data set [1] has as its system Mycobacterium tuberculosis. The experiment in a line: microbe, parasite or virus in culture. Particulars: H37Rv ATCC 27294, 168 h.
Description: Antimycobacterial activity against Mycobacterium tuberculosis H37Rv ATCC 27294 after 7 days by REMA method
A short description of data set [2]: Selectivity index, ratio of CC50 for human HepG2 cells to MIC90 for Mycobacterium tuberculosis H37Rv ATCC 27294. In kind it is toxicity, cell-based. Particulars: read-out: Selectivity Index.
Data set [3] in a line: Cytotoxicity against human HepG2 cells after 24 hrs by MTT assay. In kind it is cell-based. (Tetrazolium dyes change colour on reduction, which living cells bring about.)
Data set [4] deals with Mycobacterium tuberculosis. The experiment in a line: microbe, parasite or virus in culture. Particulars: 18b, 168 h.
Description: Antimycobacterial activity against non-replicating streptomycin starved Mycobacterium tuberculosis 18b after 7 days by REMA method
Data set [5] in a line: Solubility of compound in simulated gastric fluid. In kind it is ADME, Stomach.
A short description of data set [6]: Half life in Swiss mouse at 10 mg/kg, po by LC-MS/MS analysis. The format is ADME, organism-based. Particulars: in vivo.
Data set [7] in a line: Solubility of compound in simulated intestinal fluid. The format is ADME.
Data set [8] can be described thus: AUC(0 to t) in Swiss mouse at 10 mg/kg, po by LC-MS/MS analysis. In kind it is ADME, organism-based. The following applies: in vivo.
Data set [9] can be described thus: Solubility of compound in PBS buffer. The format is physicochemical.
Data set [10] is described as follows: Solubility of compound in water. The format is physicochemical.
Data set [11] can be described thus: Cmax in Swiss mouse at 10 mg/kg, po by LC-MS/MS analysis. In kind it is ADME, organism-based. More on the design: dose 10 mg/kg, route oral. Particulars: in vivo.
Data set [12] in a line: Tmax in Swiss mouse at 10 mg/kg, po by LC-MS/MS analysis. In kind it is ADME, organism-based. The following applies: in vivo.

Molecule `O=[N+]([O-])c1ccc(CN2CCN(c3ccc(F)cc3)CC2)o1` showed an MIC90 in data set [1] of 3.27 µM (≈ 0.998 µg/mL).
As usually defined, the CC50 is the concentration that lowers cell viability or growth by half. A high value points to better tolerance by the cells. For the molecule `O=[N+]([O-])c1ccc(CN2CCN(c3ccc(Cl)cc3)CC2)o1`, the selectivity ratio in data set [2] is above 11600. In addition, the MIC90 came out at 0.37 µM (≈ 0.119 µg/mL) in [1] and 1.4 µM (≈ 0.45 µg/mL) in data set [4]. Further, the CC50 at 24 h in data set [3] was above 58 µM.
Consider `Cc1cccc(N2CCN(Cc3ccc([N+](=O)[O-])o3)CC2)c1C`, for which, in data set [1], the MIC90 came out at 12.7 µM (≈ 4 µg/mL).
In the case of `O=[N+]([O-])c1ccc(CN2CCN(c3ccccc3)CC2)o1`, the MIC90 in data set [1] turned out to be 0.2 µM (≈ 0.0575 µg/mL).
Still for that read-out and setting: for `COc1ccc(S(=O)(=O)N2CCN(Cc3ccc([N+](=O)[O-])o3)CC2)cc1` the value was 0.31 µM (≈ 0.118 µg/mL).
In data set [1], `c1ccc(N2CCN(Cc3ccco3)CC2)cc1` returned an MIC90 above 16.5 µM.
For `O=[N+]([O-])c1ccc(CN2CCN(S(=O)(=O)c3ccccc3)CC2)o1`, the selectivity ratio in data set [2] was above 329. Besides, the MIC90 in [1] is 0.17 µM (≈ 0.0597 µg/mL); in data set [4], above 22.7 µM. The molecule further registered a cytotoxic concentration (CC50) at 24 h in [3] above 56 µM.
With `O=[N+]([O-])c1ccc(CN2CCC(c3ccccc3)CC2)o1`, the MIC90 in data set [1] worked out at 0.59 µM (≈ 0.169 µg/mL).
For the molecule `COc1cccc(N2CCN(Cc3ccc([N+](=O)[O-])o3)CC2)c1`, the selectivity ratio in data set [2] is above 1580. The MIC90 in [1] turned out to be 0.047 µM (≈ 0.0149 µg/mL); in data set [4], 2.11 µM (≈ 0.67 µg/mL). In data set [3], this molecule registered a CC50 at 24 h above 63 µM.
Consider `CS(=O)(=O)N1CCN(Cc2ccc([N+](=O)[O-])o2)CC1`, for which the MIC90 in data set [1] came out at 23.1 µM (≈ 6.67 µg/mL).
A word on the solubility: it is how much of the substance goes into solution per volume. The half-life is how long it takes for the measured level to halve. Higher therefore signals slow loss. One may read the AUC(0-t) as the area under the concentration-time curve up to a stated or last time point. As usually defined, the Cmax is the peak of the concentration-time curve. One may read the Tmax as the time from dosing to the highest level. For `O=[N+]([O-])c1ccc(CN2CCN(S(=O)(=O)c3ccc(F)cc3)CC2)o1`, the solubility in data set [5] was 2170 µM (≈ 801 µg/mL); in [7] it was 13.5 µM (≈ 4.99 µg/mL); in [9], 54.1 µM (≈ 20 µg/mL); in data set [10], 108 µM (≈ 40 µg/mL). Moreover, the half-life in data set [6] was 87.6 min. For the same molecule, the selectivity ratio in data set [2] was above 675. In data set [8], the area under the curve AUC(0-t) was 4.22 µM·h. For the same molecule, the results for the MIC90 in [1] and in data set [4] were 0.08 µM (≈ 0.0295 µg/mL) and above 21.6 µM, respectively. In [3], the CC50 at 24 h was above 54 µM. In [11], this molecule gave a Cmax of 3.26 µM. In data set [12], the time of peak concentration (Tmax) turned out to be 15 min.
Turning to `Cc1ccc(S(=O)(=O)N2CCN(Cc3ccc([N+](=O)[O-])o3)CC2)cc1`, the selectivity ratio in data set [2] is above 338. In addition, the results for the MIC90 in data set [1] and in [4] were 0.16 µM (≈ 0.0585 µg/mL) and above 21.9 µM, respectively. The half-maximal cytotoxic concentration (CC50) at 24 h in data set [3] is above 54 µM.
With `CC(=O)c1ccc(N2CCN(Cc3ccc([N+](=O)[O-])o3)CC2)cc1`, the MIC90 in data set [1] worked out at 0.3 µM (≈ 0.0988 µg/mL).
Still for that read-out and setting: under `COc1cccc(S(=O)(=O)N2CCN(Cc3ccc([N+](=O)[O-])o3)CC2)c1` stands 1.3 µM (≈ 0.496 µg/mL).
Molecule `O=[N+]([O-])c1ccc(CN2CCN(S(=O)(=O)c3ccc(C(F)(F)F)cc3)CC2)o1` came in with an MIC90 in [1] of 0.5 µM (≈ 0.21 µg/mL).
Same read-out and setting: under `CC(=O)c1ccc(N2CCN(Cc3ccc([N+](=O)[O-])s3)CC2)cc1` stands above 11.5 µM.
In data set [1], `O=[N+]([O-])c1ccc(CN2CCN(c3cccc(Cl)c3)CC2)o1` returned an MIC90 of 0.37 µM (≈ 0.119 µg/mL).
As for `O=[N+]([O-])c1ccc(CN2CCN(c3ccc(N4CCOCC4)cc3)CC2)o1`, in [6], the half-life is 52.8 min. Moreover, the selectivity ratio in [2] was above 2650. In addition, the exposure AUC(0-t) in data set [8] worked out at 4.51 µM·h. Also, the MIC90 was found to be 0.02 µM (≈ 0.00745 µg/mL) in [1] and 0.56 µM (≈ 0.209 µg/mL) in [4]. In data set [10], this molecule displayed a solubility of 2.68 µM (≈ 0.998 µg/mL). In addition, in data set [3], the CC50 at 24 h is above 53 µM. Further, the Cmax in data set [11] was found to be 5.34 µM. The Tmax in data set [12] worked out at 15 min.
On to `O=[N+]([O-])c1ccc(CN2CCN(c3ccccc3)CC2)s1`, for which the MIC90 in [1] was above 13.1 µM.
Same read-out and setting: for `COc1ccccc1N1CCN(Cc2ccc([N+](=O)[O-])o2)CC1` the value was 25.2 µM (≈ 8 µg/mL).
`CC(C)(C)c1ccc(N2CCN(Cc3ccc([N+](=O)[O-])o3)CC2)cc1`: the solubility in data set [5] is 1170 µM (≈ 400 µg/mL); in [7], 2.9 µM (≈ 0.996 µg/mL); in data set [9], 58.2 µM (≈ 20 µg/mL); in data set [10], 116 µM (≈ 40 µg/mL). The molecule also gave a half-life in data set [6] of 242 min. Moreover, the selectivity ratio in [2] was above 700. Moreover, the AUC(0-t) in data set [8] came to 2.99 µM·h. The MIC90 in data set [1] stood at 0.0072 µM (≈ 0.00247 µg/mL); in data set [4] it was 12.6 µM (≈ 4.33 µg/mL). In addition, in data set [3], the CC50 at 24 h is above 63 µM. The concentration in data set [11] peaked (Cmax) at 2.35 µM. For the same molecule, the time of peak concentration (Tmax) in data set [12] was 15 min.
Consider `O=[N+]([O-])c1ccc(CN2CCN(c3ccccc3F)CC2)o1`, for which the MIC90 in data set [1] was found to be 6.55 µM (≈ 2 µg/mL).
On the same count and under the same terms, under `Cc1ccc(N2CCN(Cc3ccc([N+](=O)[O-])o3)CC2)cc1` stands 13.2 µM (≈ 3.98 µg/mL); under `O=[N+]([O-])c1ccc(CN2CCN(c3ccc(Cl)cc3)CC2)s1`, above 11.8 µM; under `O=[N+]([O-])c1ccc(CN2CCN(c3cccc(C(F)(F)F)c3)CC2)o1`, 0.33 µM (≈ 0.117 µg/mL).
The molecule `COc1ccc(N2CCN(Cc3ccc([N+](=O)[O-])o3)CC2)cc1` returned an MIC90 in [1] of 0.12 µM (≈ 0.0381 µg/mL).
For the molecule `O=[N+]([O-])c1ccc(S(=O)(=O)N2CCN(Cc3ccc([N+](=O)[O-])o3)CC2)cc1`, in data set [2], the selectivity ratio is above 333. Moreover, the MIC90 came out at 0.15 µM (≈ 0.0595 µg/mL) in [1] and 20.1 µM (≈ 7.97 µg/mL) in data set [4]. The CC50 at 24 h in data set [3] was above 50 µM.
Consider `N#Cc1cccc(N2CCN(Cc3ccc([N+](=O)[O-])o3)CC2)c1`, for which the solubility in data set [5] is 2560 µM (≈ 801 µg/mL); in data set [7] it was 32 µM (≈ 9.99 µg/mL); in data set [9] it was 256 µM (≈ 80 µg/mL); in data set [10] it was 256 µM (≈ 80 µg/mL). In data set [2], the selectivity ratio was above 3200. Further, the MIC90 is 0.019 µM (≈ 0.00593 µg/mL) in [1] and 1.34 µM (≈ 0.419 µg/mL) in data set [4]. For the same molecule, in [3], the CC50 at 24 h is above 64 µM.
`O=[N+]([O-])c1ccc(CN2CCOCC2)o1` yielded an MIC90 in data set [1] of 31.4 µM (≈ 6.66 µg/mL).
For `CC(C)(C)OC(=O)N1CCN(Cc2ccc([N+](=O)[O-])o2)CC1`, the solubility in data set [5] was 2570 µM (≈ 800 µg/mL); in data set [7], 2570 µM (≈ 800 µg/mL); in [9], 2570 µM (≈ 800 µg/mL); in [10] it was 1290 µM (≈ 400 µg/mL). In data set [6], this molecule showed a half-life of 101 min. Moreover, the selectivity ratio in data set [2] was above 1600. This molecule registered an AUC(0-t) in [8] of 2.71 µM·h. Also, the results for the MIC90 in data set [1] and in [4] were 0.048 µM (≈ 0.0149 µg/mL) and 1.6 µM (≈ 0.498 µg/mL), respectively. Besides, the 50% cytotoxic concentration (CC50) at 24 h in data set [3] is above 64 µM. In data set [11], this molecule gave a Cmax of 3.81 µM. Further, the Tmax in data set [12] amounted to 15 min.
`COc1c(N2CCNC(C)C2)c(F)cc2c(=O)c(C(=O)O)cn(C3CC3)c12` (stereo unspecified) [GATIFLOXACIN] had an MIC90 in data set [4] of 2.66 µM (≈ 0.999 µg/mL).
Consider `CO[C@H]1/C=C/O[C@@]2(C)Oc3c(C)c(O)c4c(O)c(c(/C=N/N5CCN(C)CC5)c(O)c4c3C2=O)NC(=O)/C(C)=C\C=C\[C@H](C)[C@H](O)[C@@H](C)[C@@H](O)[C@@H](C)[C@H](OC(C)=O)[C@@H]1C` [RIFAMPIN], for which the MIC90 in data set [1] stood at 0.07 µM (≈ 0.0576 µg/mL); in [4], 2.4 µM (≈ 1.98 µg/mL).
